Where “and” joins values, the source holds several entries; their conditions need not be identical. Equal values may be shown once.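 Dose response: 5 concentrations. Exposure: 48 h. Format: 96-well plates. Endpoint: linear interpolation; highest concentration if not reached. Abbreviation: GI50, concentration required for 50% inhibition of growth. TGI is the concentration that stops growth completely.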
Columns and labels:
Test in all cases: NCI tumour cell line growth inhibition, 48 h
OVCAR-3 ovarian = test system: OVCAR-3 ovarian
NCI-H226 lung = test system: NCI-H226 lung
BT-549 breast = test system: BT-549 breast
PC-3 prostate = test system: PC-3 prostate
HS 578T breast = test system: HS 578T breast
SK-MEL-2 melanoma = test system: SK-MEL-2 melanoma
HOP-92 NSCLC = test system: HOP-92 NSCLC

SMILES | GI50 (OVCAR-3 ovarian) [µM] | TGI (OVCAR-3 ovarian) | GI50 (NCI-H226 lung) [µM] | TGI (NCI-H226 lung) | GI50 (BT-549 breast) [µM] | TGI (BT-549 breast) | GI50 (PC-3 prostate) [µM] | TGI (PC-3 prostate) | GI50 (HS 578T breast) [µM] | TGI (HS 578T breast) [µM] | GI50 (SK-MEL-2 melanoma) [µM] | TGI (SK-MEL-2 melanoma) | GI50 (HOP-92 NSCLC) [µM] | TGI (HOP-92 NSCLC) [µM]
O=[N+]([O-])/C=C\c1ccc(Cl)c(Cl)c1 | 1.96 | 3.94 µM | 12 | 27.9 µM | 4.15 | 14.9 µM | 1.24 | 3.93 µM | 2.42 | 7.6 | 2.56 | 7.61 µM | 1.87 | 5.01
COc1ccc(/C(=C2\O[C@@H]([C@H]3COC(C)(C)O3)[C@H]3OC(C)(C)O[C@@H]23)c2cc(OC)c(OC)c(OC)c2)cc1O | 2.38 | 5.34 µM | 25.9 | > 100 µM | 5.39 | > 100 µM | 5.11 | > 100 µM | 2.83 | 7.88 | 57.9 | > 100 µM | 5.45 | 31.8
Nc1ccn(C2O[C@H](CO)[C@@H](O)[C@@H]2O)c(=O)n1 (some centres not stated) | – | > 100 µM | – | > 100 µM | – | > 100 µM | – | > 100 µM | – | > 100 | – | > 100 µM | 33.8 | > 100
COc1cc(/C=C/c2cc(/C=C/c3ccc(O)c(OC)c3)n(-c3ccccc3)n2)ccc1O | 0.266 | 0.938 µM | 0.382 | 1.83 µM | 0.631 | 22.8 µM | 0.332 | 12.7 µM | 0.157 | > 23.2 | 0.266 | 2.03 µM | 0.452 | 4.25
Cn1cc(-c2cnc3ccc(NC(=O)Nc4ccc(F)c(Br)c4)cc3n2)cn1 | 2 | 5.77 µM | 1.52 | 3.64 µM | 1.51 | 3.24 µM | 1.44 | 3.62 µM | 2 | 5.15 | 1.97 | 4.13 µM | 1.6 | 4.41
O=C1NNC=Nc2ccc(cc2)S(=O)(=O)c2ccc(cc2)N=CNNC1=O | – | > 100 µM | – | > 100 µM | – | > 100 µM | – | > 100 µM | – | > 100 | – | > 100 µM | – | > 100
N#CSCC1CC(O)(c2ccccc2)C(c2ccccc2)C(c2ccc(Cl)cc2)O1 (configuration not stated) | 0.782 | 2.29 µM | 2.27 | 4.62 µM | – | – | 1.85 | 4.98 µM | 3.22 | 81 | 2.33 | 4.37 µM | – | –
Cc1ccc(CS/C(=C\c2ccc([N+](=O)[O-])cc2)C(=O)c2ccc(F)cc2)cc1 | 1.95 | 4.02 µM | 3.17 | 15 µM | 1.92 | 4.38 µM | 2.36 | 6.2 µM | 2.35 | 6.34 | 15.3 | 40.5 µM | 14.1 | 41.3
CSc1ccc(C2=NN(C(C)=O)C(c3cc(C)cs3)C2)cc1 (configuration not stated) | 23.9 | > 100 µM | 21.8 | > 100 µM | 17.1 | 63.7 µM | 20.2 | 95.6 µM | 22.3 | 88.6 | 39 | > 100 µM | 21.6 | 90.1
O=C(CI)NC1Oc2ccccc2-c2oc(=O)c(-c3ccccc3)cc21 (configuration not stated) | 1.3 | 2.71 µM | 3.32 | 29 µM | 1.7 | 3.24 µM | – | – | 2.4 | 7.28 | 2.17 | 5.43 µM | – | –
Cc1nc2cccc([N+](=O)[O-])c2c(NCCCN(C)C)c1C | – | > 63.9 µM | – | > 90.4 µM | – | – | – | > 50.8 µM | – | > 100 | – | > 85.6 µM | – | > 100
Cc1ccc(-c2c3c([nH]c(=O)c2C#N)-c2cc(F)ccc2OC3)cc1 | 25.4 | 81.9 µM | – | – | – | – | 88.7 | > 100 µM | – | – | 55.4 | 98.4 µM | > 100 | > 100
CNC(=O)OCc1c(COC(=O)NC)c(-c2ccc(Cl)c(Cl)c2)n2c1SCC2 | – | 25.2 µM | – | 2.67 µM | 6.23 | 22.4 µM | – | 55.1 µM | – | 51 | – | 26.7 µM | – | 17.6
CN1CCN(Cc2ccc(NC(=O)c3cncc(C#Cc4cnc(N)c5ccc(C#N)cc45)c3)cc2C(F)(F)F)CC1 | 0.331 | 1.45 µM | 0.0698 | 0.864 µM | 0.729 | 10.8 µM | 0.357 | 1.37 µM | 0.0217 | 0.406 | 0.0217 | 0.353 µM | 0.0244 | 0.344
Cc1c(C(=O)N/N=C/c2ccc(Cl)cc2)nnn1-c1ccnc2c(C(F)(F)F)cccc12 | 12 | 26.4 µM | 2.77 | 8.32 µM | 22.9 | 52.3 µM | 3.04 | 11.3 µM | 3.62 | 12 | 18.1 | 54.9 µM | 3.62 | 16.2
O=C(O)CCCCC(CCSCc1ccccc1)SCc1ccccc1 (configuration not stated) | 37.9 | > 69.9 µM | > 71 | > 100 µM | 50.8 | > 100 µM | 49.1 | > 100 µM | 50.3 | > 100 | 27.5 | 67.6 µM | 29.3 | > 81.6
CSc1cc(N=Nc2nc3ccccc3s2)c2ccccc2c1O | 7.89 | 19.3 µM | – | – | 6.28 | 14 µM | 13.4 | > 50 µM | 20.9 | > 50 | 8.41 | 22 µM | 10.1 | > 50
COC(=O)CCCCN=Cc1c(O)c(O)c(C(C)C)c2cc(C)c(-c3c(C)cc4c(C(C)C)c(O)c(O)c(C=NCCCCC(=O)OC)c4c3O)c(O)c12 | 1.02 | > 32.5 µM | 1.3 | 8.38 µM | 1.5 | 23.8 µM | 0.787 | > 32.5 µM | 1.49 | > 32.5 | 1.38 | > 32.5 µM | 0.782 | 2.64
O=NN(Cc1ccc(Cl)cc1)C(C(=O)O)c1ccccc1 (configuration not stated) | – | > 100 µM | – | > 100 µM | – | > 100 µM | – | > 100 µM | – | > 100 | – | > 100 µM | – | > 100

SMILES | GI50 (OVCAR-3 ovarian) [µM] | TGI (OVCAR-3 ovarian) | GI50 (NCI-H226 lung) [µM] | TGI (NCI-H226 lung) | GI50 (BT-549 breast) [µM] | TGI (BT-549 breast) | GI50 (PC-3 prostate) [µM] | TGI (PC-3 prostate) | GI50 (HS 578T breast) [µM] | TGI (HS 578T breast) [µM] | GI50 (SK-MEL-2 melanoma) [µM] | TGI (SK-MEL-2 melanoma) | GI50 (HOP-92 NSCLC) [µM] | TGI (HOP-92 NSCLC) [µM]
Cc1cc(I)cc(CNCCCN2CCSCC2)c1O | 14.1 | 27.7 µM | 24.5 | 79.8 µM | 5.6 | 20.2 µM | 17.7 | 36.3 µM | 12.1 | 26.6 | 18.6 | 35.4 µM | 7.57 | 22.3
CCc1c(Oc2ccc(C(C)=O)cc2)c2ccccc2[nH]c1=O | 26 | 80.9 µM | 2.8 | 43.9 µM | 17.6 | 70.8 µM | 0.97 | > 40.8 µM | 4.3 | 43.6 | 59.5 | > 100 µM | 1.67 | 11.7
COc1cccc(/C=N/NC(=O)c2ccccc2Nc2ccnc(C(F)(F)F)c2)c1O | 0.169 | 43.9 µM | 0.571 | 36.5 µM | 0.567 | 54.3 µM | 1.47 | > 33.1 µM | 1.08 | > 46.7 | 2.13 | > 44 µM | 0.342 | 21.5
CCCCC/C(C=C(C#N)C#N)=C/c1ccccc1 | 2.26 | 11.2 µM | 8.11 | 25.5 µM | 2.52 | 8.75 µM | 3.13 | 12.2 µM | 1.87 | 4.76 | 17.4 | 41.3 µM | 5.82 | 21.8
O=C1c2c(c3c4ccccc4n(CCCCCCBr)c3c3[nH]c4ccccc4c23)C(=O)N1O | 3.06 | 13 µM | 3.7 | 16.4 µM | 1.83 | 6.53 µM | – | – | 5.14 | 45.9 | 2.09 | 5.27 µM | 2.22 | 6.7
CCOc1cccc(/C=N/NC(=O)c2ccccc2Nc2ccnc(C(F)(F)F)c2)c1O | 0.37 | 51.7 µM | 0.664 | 19.1 µM | 0.494 | 53.6 µM | 0.428 | > 39.1 µM | 6.92 | > 100 | 3.4 | > 50.4 µM | 0.246 | 19.7
O=C(c1ccco1)c1nc2ccc(C(F)(F)F)cc2[n+]([O-])c1C(F)(F)F | 98.8 | > 100 µM | 53.9 | > 100 µM | 39.4 | > 100 µM | 28.7 | > 100 µM | > 100 | > 100 | 87.7 | > 100 µM | – | –
COC(=O)c1cc2c3ccccc3[nH]c2c2ncccc12 | > 100 | > 100 µM | > 100 | > 100 µM | 17.9 | 78.8 µM | > 100 | > 100 µM | 15.4 | 87 | > 100 | > 100 µM | > 100 | > 100
NCC(=O)NS(=O)(=O)OC[C@H]1O[C@@H](n2cnc3c(N)ncnc32)[C@H](O)[C@@H]1O | 2.01 | 4.48 µM | 2 | 3.77 µM | 2.34 | 5.56 µM | 2.66 | 6.47 µM | 2.89 | 9.13 | 2.22 | 4.69 µM | 2.97 | 6.78
COc1cc(OC)cc(-c2ccc(-c3ccc(C(=N)N)o3)o2)c1 | 3.26 | 11.3 µM | 22.6 | 44.6 µM | 6.91 | 20.1 µM | 4.77 | 17.5 µM | 8.12 | 27.3 | 2.44 | 5.35 µM | – | –
CCOC(=O)/C=C(/C(=O)OCC)n1cc(Cl)c(=O)n(CC(=O)OCC)c1=O | 10.5 | 14.3 µM and 28.8 µM | – | > 25 µM and 32.5 µM | – | 10.6 µM and 37.8 µM | 19.5 | 9.64 µM and 34.6 µM | – | – | 26.2 | 11.2 µM and 46.3 µM | – | 9.3
C=C(CN1CCc2ccccc2C1)c1ccc(C(=O)Nc2cnccn2)cc1 | 22.1 | 62.6 µM | > 100 | > 100 µM | – | – | 1.86 | > 100 µM | 57.1 | > 100 | 46.6 | > 100 µM | – | –
O=c1oc2ccc(F)cc2c(=O)n1-c1ccc(F)cc1F | 3.26 | 27.7 µM | 2.82 | 72.9 µM | 2.53 | 7.4 µM | 2.81 | 10.1 µM | 2.59 | 8.51 | 1.98 | 5.04 µM | 1.6 | 4.68
CC1=C(CCCNS(C)(=O)=O)C2=C(C)C3(CC3)[C@@](C)(O)C(=O)C2=C1 | 0.89 | 4.7 µM | 1.04 | 5.79 µM | 0.749 | 3.89 µM | 1.68 | > 100 µM | 2.73 | 11.1 | 1.67 | 4.13 µM | 0.303 | 1.41
CCNCCNc1cc(-c2ccc(C(=O)OC)cc2)c(C#N)c2nc3ccccc3n12 | 1.35 | 2.88 µM | 2.02 | 8.39 µM | – | – | 5.28 | > 100 µM | 2.42 | 7.48 | 5.15 | 31.5 µM | 2.23 | 4.36
COc1cc2c3c(n(C)c(=O)c2cc1OC)-c1cc2c(cc1/C3=C\CCCN1C(=O)c3ccccc3C1=O)OCO2 | > 40 | > 40 µM | – | – | 8.26 | > 40 µM | 4.79 | 24.7 µM | > 40 | > 40 | – | – | 2.12 | 13.4
COc1ccc2c(c1)c(-c1nc(-c3cn(C)c4ncccc34)cs1)cn2CCCN1CCCCC1 | 1.59 | 3.02 µM | – | – | 4.91 | 19.5 µM | 1.76 | 3.27 µM | 2.24 | 5.8 | 2.07 | 4.46 µM | 1.67 | 3.24
O=C(O)Cn1ccc(=O)c2ccc([N+](=O)[O-])cc21 | – | > 100 µM | – | > 100 µM | – | > 100 µM | – | > 100 µM | – | > 100 | – | > 100 µM | – | –

— PubChem BioAssay (NCI)
